Measurements from ChEMBL document CHEMBL4602605, “Fluoroquinolones structural and medicinal developments (2013-2018): Where are we now?” (Bioorg Med Chem, 2019).
In brackets after ≈: the same amount, converted by molar mass.

Assays:
Pseudomonas aeruginosa [1] = experiment: Antimicrobial activity against Pseudomonas aeruginosa ATCC 43288 incubated for 18 to 24 hrs by microbroth dilution method; assay type: functional
[2] = tested on: Yersinia pseudotuberculosis; experiment: Antimicrobial activity against Yersinia pseudotuberculosis ATCC 911 incubated for 18 to 24 hrs by microbroth dilution method; assay type: functional
Staphylococcus aureus [3] = experiment: Antimicrobial activity against Staphylococcus aureus ATCC 25923 incubated for 18 to 24 hrs by microbroth dilution method; assay type: functional
Enterococcus faecalis [4] = experiment: Antimicrobial activity against Enterococcus faecalis ATCC 29212 incubated for 18 to 24 hrs by microbroth dilution method; assay type: functional
Bacillus cereus = experiment: Antimicrobial activity against Bacillus cereus 709 Roma incubated for 18 to 24 hrs by microbroth dilution method; assay type: functional
[5] = tested on: Mycolicibacterium smegmatis; experiment: Antimicrobial activity against Mycobacterium smegmatis ATCC 607 incubated for 48 to 72 hrs by microbroth dilution method; assay type: functional
Escherichia coli [6] = experiment: Antimicrobial activity against Escherichia coli ATCC 25922 incubated for 18 to 24 hrs by microbroth dilution method; assay type: functional
Escherichia coli [7] = experiment: Antimicrobial activity against Escherichia coli ATCC 9637 incubated for 24 hrs by CLSI-based broth microdilution method; assay type: functional; details: W ATCC 9637, 24 h
Pseudomonas aeruginosa [8] = experiment: Antimicrobial activity against Pseudomonas aeruginosa ATCC BAA-427 incubated for 24 hrs by CLSI-based broth microdilution method; assay type: functional; details: ATCC BAA-427, 24 h
Staphylococcus aureus [9] = experiment: Antimicrobial activity against methicillin-resistant Staphylococcus aureus ATCC 700699 incubated for 24 hrs by CLSI-based broth microdilution method; assay type: functional; details: ATCC 700699, 24 h
Staphylococcus aureus [10] = experiment: Antimicrobial activity against gentamicin-resistant Staphylococcus aureus ATCC 33592 incubated for 24 hrs by CLSI-based broth microdilution method; assay type: functional; details: ATCC 33592, 24 h
Klebsiella pneumoniae [11] = experiment: Antimicrobial activity against Klebsiella pneumoniae ATCC 27736 incubated for 24 hrs by CLSI-based broth microdilution method; assay type: functional; details: ATCC 27736, 24 h
Staphylococcus aureus [12] = experiment: Antimicrobial activity against Staphylococcus aureus ATCC 29213 incubated for 24 hrs by CLSI-based dilution method; assay type: functional; details: ATCC 29213, 24 h
Staphylococcus aureus [13] = experiment: Antimicrobial activity against Staphylococcus aureus ATCC 25923 incubated for 24 hrs by CLSI-based dilution method; assay type: functional; details: ATCC 25923, 24 h
[14] = tested on: Mycolicibacterium smegmatis; experiment: Antimicrobial activity against Mycobacterium smegmatis incubated for 30 to 32 hrs by spectrophotometry based assay; assay type: functional
PC-3 = experiment: Growth inhibition of human PC3 cells by MTT assay; assay type: functional, cell-based
Aspergillus clavatus = experiment: Antifungal activity against Aspergillus clavatus after overnight incubation by agar well diffusion method; assay type: functional
Candida albicans = experiment: Antifungal activity against Candida albicans after overnight incubation by agar well diffusion method; assay type: functional
Enterococcus faecalis [15] = experiment: Antimicrobial activity against Enterococcus faecalis ATCC 29212 incubated for 24 hrs by serial dilution method; assay type: functional; details: ATCC 29212, 24 h
Staphylococcus aureus [16] = experiment: Antimicrobial activity against methicillin-susceptible Staphylococcus aureus ATCC 29213 incubated for 24 hrs by serial dilution method; assay type: functional; details: ATCC 29213, 24 h
Staphylococcus aureus [17] = experiment: Antimicrobial activity against methicillin-resistant Staphylococcus aureus ATCC 33591 incubated for 24 hrs by serial dilution method; assay type: functional; details: ATCC 33591, 24 h
Escherichia coli [18] = experiment: Antimicrobial activity against Escherichia coli ATCC 35218 incubated for 24 hrs by serial dilution method; assay type: functional; details: ATCC 35218, 24 h
Klebsiella pneumoniae [19] = experiment: Antimicrobial activity against Klebsiella pneumoniae ATCC 35657 incubated for 24 hrs by serial dilution method; assay type: functional; details: ATCC 35657, 24 h
Moraxella catarrhalis = experiment: Antimicrobial activity against Moraxella catarrhalis ATCC 25238 incubated for 24 hrs by serial dilution method; assay type: functional; details: ATCC 25238, 24 h
A549 = experiment: Growth inhibition of human A549 cells at 10 uM incubated for 48 hrs by MTT assay relative to control; assay type: functional; details: A549, 48 h, read-out: GI
HCT-116 = experiment: Growth inhibition of human HCT116 cells at 10 uM incubated for 48 hrs by MTT assay relative to control; assay type: functional; details: HCT-116, 48 h, read-out: GI
HeLa = experiment: Growth inhibition of human HeLa cells at 10 uM incubated for 48 hrs by MTT assay relative to control; assay type: functional; details: read-out: GI
PANC-1 = experiment: Growth inhibition of human PANC1 cells at 10 uM incubated for 48 hrs by MTT assay; assay type: functional; details: PANC-1, 48 h, read-out: GI
Escherichia coli [20] = experiment: Antimicrobial activity against penicillin-resistant Escherichia coli at < 1 ug/ml relative to control; assay type: functional
[21] = tested on: Mycobacterium tuberculosis; experiment: Antimicrobial activity against Mycobacterium tuberculosis H37Rv incubated for 10 days by microbroth dilution method; assay type: functional; details: 240 h
Mycobacterium avium = experiment: Antimicrobial activity against Mycobacterium avium incubated for 10 days by microbroth dilution method; assay type: functional; details: 240 h
Mycolicibacter terrae = experiment: Antimicrobial activity against Mycobacterium terrae incubated for 10 days by microbroth dilution method; assay type: functional; details: 240 h
Escherichia coli [22] = experiment: Antimicrobial activity against Escherichia coli ATCC 25922 by CLSI method; assay type: functional
Staphylococcus aureus [23] = experiment: Antimicrobial activity against Staphylococcus aureus ATCC 25923 by CLSI method; assay type: functional

CCn1c(CN2CCN(c3ccc([N+](=O)[O-])cc3)CC2)nn(CN2CCN(c3cc4c(cc3F)c(=O)c(C(=O)O)cn4CC)CC2)c1=S
MIC (Pseudomonas aeruginosa [1]): 0.25 to 0.5 µg/mL (≈ 0.368 to 0.736 µM)
MIC [2]: 0.25 µg/mL (≈ 0.368 µM)
MIC (Staphylococcus aureus [3]): 0.25 to 0.99 µg/mL (≈ 0.368 to 1.46 µM)
MIC (Enterococcus faecalis [4]): 0.122 µg/mL (≈ 0.179 µM)
MIC (Bacillus cereus): 0.122 to 0.25 µg/mL (≈ 0.179 to 0.368 µM)
MIC [5]: 0.244 µg/mL (≈ 0.359 µM)
MIC (Escherichia coli [6]): ≤ 0.03 µg/mL

CCn1cc(C(=O)O)c(=O)c2cc(F)c(-n3cc(CO[C@H]4O[C@H](COC(C)=O)[C@H](OC(C)=O)[C@H](OC(C)=O)[C@H]4OC(C)=O)nn3)c(F)c21
MIC (Escherichia coli [7]): 12.5 µg/mL (≈ 18.4 µM)
MIC (Pseudomonas aeruginosa [8]): > 50 µg/mL
MIC (Staphylococcus aureus [9]): > 50 µg/mL
MIC (Staphylococcus aureus [10]): > 50 µg/mL
MIC (Klebsiella pneumoniae [11]): > 50 µg/mL
MIC (Staphylococcus aureus [12]): > 50 µg/mL
MIC (Staphylococcus aureus [13]): > 50 µg/mL

COc1c(N2CCN(C)CC2)c(F)cc2c(=O)c(C(=O)N/N=C\c3cccc(C)c3)cn(C3CC3)c12
MIC [14]: 42.5 µM (≈ 20.9 µg/mL)
IC50 (PC-3): 10 µg/mL (≈ 20.3 µM)
inhibition zone (IZ) (Aspergillus clavatus): 11 mm
inhibition zone (IZ) (Candida albicans): 10 mm

CCCN(CCC)Cc1cn(-c2cc3c(cc2F)c(=O)c(C(=O)NO)cn3C2CC2)nn1
MIC (Enterococcus faecalis [15]): 64 µg/mL (≈ 145 µM)
MIC (Staphylococcus aureus [16]): 64 µg/mL (≈ 145 µM)
MIC (Staphylococcus aureus [17]): > 64 µg/mL
MIC (Escherichia coli [18]): 64 µg/mL (≈ 145 µM)
MIC (Klebsiella pneumoniae [19]): 32 µg/mL (≈ 72.3 µM)
MIC (Moraxella catarrhalis): 64 µg/mL (≈ 145 µM)
inhibition of growth at 10 µM (A549): 20%
inhibition of growth at 10 µM (HCT-116): 10%
inhibition of growth at 10 µM (HeLa): 15%
inhibition of growth at 10 µM (PANC-1): 15%

CCn1cc(C(=O)O)c(=O)c2cc(F)c(N3CCN(Cn4nc(CN5CCN(c6ccc([N+](=O)[O-])cc6)CC5)n(Cc5ccccc5)c4=O)CC3)cc21
MIC (Pseudomonas aeruginosa [1]): 0.24 to 0.5 µg/mL (≈ 0.331 to 0.689 µM)
MIC (Staphylococcus aureus [3]): 0.24 to 0.25 µg/mL (≈ 0.331 to 0.344 µM)
MIC (Enterococcus faecalis [4]): 0.48 to 0.5 µg/mL (≈ 0.661 to 0.689 µM)
MIC (Bacillus cereus): 0.24 to 0.25 µg/mL (≈ 0.331 to 0.344 µM)
MIC [5]: 0.244 to 0.99 µg/mL (≈ 0.336 to 1.36 µM)
MIC (Escherichia coli [6]): 0.25 to 0.99 µg/mL (≈ 0.344 to 1.36 µM)

COc1c(N2CCN(C)CC2)c(F)cc2c(=O)c(C(=O)N/N=C\c3c(Cl)cccc3Cl)cn(C3CC3)c12
MIC [14]: 27 µM (≈ 14.8 µg/mL)
IC50 (PC-3): 4.9 µg/mL (≈ 8.97 µM)
inhibition zone (IZ) (Candida albicans): 9 mm

COc1cc(/C=N\NC(=O)c2cn(C3CC3)c3c(OC)c(N4CCN(C)CC4)c(F)cc3c2=O)cc(OC)c1OC
MIC [14]: 81.2 µM (≈ 46.1 µg/mL)
IC50 (PC-3): 8.5 µg/mL (≈ 15 µM)
inhibition zone (IZ) (Aspergillus clavatus): 13 mm
inhibition zone (IZ) (Candida albicans): 13 mm

CCCCCCCCOC(=O)c1cn(C2CC2)c2cc(N3CCNCC3)c(F)cc2c1=O
inhibition (INH) (Escherichia coli [20]): >60%

CCn1cc(C(=O)O)c(=O)c2cc(F)c(-c3cc4cc(Br)ccc4oc3=O)cc21
MIC [21]: 6.2 µg/mL (≈ 13.5 µM)
MIC (Mycobacterium avium): 6.2 µg/mL (≈ 13.5 µM)
MIC (Mycolicibacter terrae): 6.2 µg/mL (≈ 13.5 µM)

COc1c(N2CCN(C)CC2)c(F)cc2c(=O)c(C(=O)N/N=C\c3cccc(O)c3)cn(C3CC3)c12
MIC [14]: 27.2 µM (≈ 13.4 µg/mL)
IC50 (PC-3): 3.4 µg/mL (≈ 6.89 µM)

O=C(NO)c1cn(C2CC2)c2cc(-n3cc(CN4CCCCC4)nn3)c(F)cc2c1=O
MIC (Enterococcus faecalis [15]): > 64 µg/mL
MIC (Staphylococcus aureus [16]): > 64 µg/mL
MIC (Staphylococcus aureus [17]): > 64 µg/mL
MIC (Escherichia coli [18]): 64 µg/mL (≈ 150 µM)
MIC (Klebsiella pneumoniae [19]): 64 µg/mL (≈ 150 µM)
MIC (Moraxella catarrhalis): 64 µg/mL (≈ 150 µM)
inhibition of growth at 10 µM (A549): 10%
inhibition of growth at 10 µM (HCT-116): 20%
inhibition of growth at 10 µM (HeLa): 5%
inhibition of growth at 10 µM (PANC-1): 10%

O=C(NO)c1cn(C2CC2)c2cc(-n3cc(CN4CCOCC4)nn3)c(F)cc2c1=O
MIC (Enterococcus faecalis [15]): > 64 µg/mL
MIC (Staphylococcus aureus [16]): > 64 µg/mL
MIC (Staphylococcus aureus [17]): > 64 µg/mL
MIC (Escherichia coli [18]): 8 µg/mL (≈ 18.7 µM)
MIC (Klebsiella pneumoniae [19]): 4 µg/mL (≈ 9.34 µM)
MIC (Moraxella catarrhalis): 8 µg/mL (≈ 18.7 µM)
inhibition of growth at 10 µM (A549): 15%
inhibition of growth at 10 µM (HCT-116): 15%
inhibition of growth at 10 µM (HeLa): 20%
inhibition of growth at 10 µM (PANC-1): 13%

CCn1cc(C(=O)O)c(=O)c2cc(F)c(-n3cc(CO[C@H]4OC[C@@H](OC(C)=O)[C@H](OC(C)=O)[C@H]4OC(C)=O)nn3)c(F)c21
MIC (Escherichia coli [7]): 12.5 µg/mL (≈ 20.5 µM)
MIC (Pseudomonas aeruginosa [8]): > 50 µg/mL
MIC (Staphylococcus aureus [9]): > 50 µg/mL
MIC (Staphylococcus aureus [10]): 12.5 µg/mL (≈ 20.5 µM)
MIC (Klebsiella pneumoniae [11]): 25 µg/mL (≈ 41.1 µM)
MIC (Staphylococcus aureus [12]): 12.5 µg/mL (≈ 20.5 µM)
MIC (Staphylococcus aureus [13]): 12.5 µg/mL (≈ 20.5 µM)

CC(=O)N1CCN(c2cc3c(cc2F)c(=O)c(C(=O)O)cn3C2CC2)CC1
MIC (Escherichia coli [22]): 0.5 µg/mL (≈ 1.34 µM)
MIC (Staphylococcus aureus [23]): 0.5 µg/mL (≈ 1.34 µM)

CCN1CCN(c2cc3c(cc2F)c(=O)c(C(=O)O)cn3C2CC2)CC1 [ENROFLOXACIN]
MIC (Escherichia coli [22]): 0.031 µg/mL (≈ 0.0863 µM)
MIC (Staphylococcus aureus [23]): 2 µg/mL (≈ 5.56 µM)
